In brackets after ≈: the same amount, converted by molar mass.

For the first test, the system named is Plasmodium falciparum. Kind of test: Antimalarial activity against synchronized ring stage of chloroquine-sensitive Plasmodium falciparum 3D7 infected in human RBC assessed as parasite death at 5 ug/ml after 40 hrs by Giemsa staining based microscopic analysis relative to control. Format: functional.
As to `Clc1ccc2c(NCCN3CCN(c4nc(N5CCOCC5)nc(N5CCOCC5)n4)CC3)ccnc2c1`, the Activity was 6%.

A further test deals with Plasmodium falciparum. In words: Antimalarial activity against synchronized ring stage of chloroquine-resistant Plasmodium falciparum RKL2 infected in human RBC assessed as parasite death at 5 ug/ml after 40 hrs by Giemsa staining based microscopic analysis relative to control. Format: functional.
As for `Clc1ccc2c(NCCN3CCN(c4nc(N5CCOCC5)nc(N5CCOCC5)n4)CC3)ccnc2c1`, the Activity amounted to 8%.

A further test relates to Plasmodium falciparum. Kind of test: Antimalarial activity against Plasmodium falciparum infected in human RBC after 72 hrs by Giemsa staining based assay. Format: functional, organism-based.
The IC50 is the concentration needed to halve the response being measured. Take `COc1ccc2nc(Cl)c(/C=C3\C=C(c4ccc(C)cc4C)OC3=O)cc2c1`: the 50% inhibitory concentration (IC50) was determined as 0.5 µg/mL (≈ 1.28 µM).

The subject of the next test is Plasmodium falciparum. Kind of test: Antimalarial activity against synchronized ring stage of Plasmodium falciparum infected in human RBC measured after 48 hrs. Format: functional, organism-based.
The compound `Cc1nn(-c2ccccc2)c(-n2ccnc2)c1C1CC(c2ccc(Br)cc2)=NN1` (stereo not drawn) returned an IC50 of 0.012 µg/mL.
The compound `Cc1n[nH]c2c1C(C1CCCCC1)c1c(n(C)c(=O)n(C)c1=O)N2` (stereo not drawn) had a half-maximal inhibitory concentration (IC50) of 0.033 µg/mL.
For the compound `Cc1nn(-c2ccccc2)c(Oc2ccccc2F)c1-c1nnc(-c2ccc(Br)cc2)o1`, half-maximal inhibition (IC50) required 506 nM.
Consider `Cc1n[nH]c2c1C(c1c(C)nn(-c3ccccc3)c1-n1ccnc1)C(C#N)=C(N)O2` (stereo not drawn), for which 0.57 µg/mL corresponded to half-maximal inhibition (IC50).
In the case of `CCOC(=O)C1=C(N)Oc2c(c(=O)n(C)c(=O)n2C)C1c1c(C)nn(-c2ccccc2)c1-n1ccnc1` (stereo not drawn), 0.049 µg/mL corresponded to half-maximal inhibition (IC50).
Still for that read-out and setting: next, `Cc1nn(-c2ccccc2)c(-n2ccnc2)c1C1CC(c2ccc(O)cc2)=NN1` (stereo not drawn): 0.036 µg/mL; `Cc1nn(-c2ccccc2)c(-n2ccnc2)c1C1CC(c2ccc(Br)cc2)=NO1` (stereo not drawn): 0.036 µg/mL.
`CCOC(=O)C1=C(N)Oc2c(ccc(O)c2C)C1c1c(C)nn(-c2ccccc2)c1-n1ccnc1` (stereo not drawn) yielded an IC50 of 0.061 µg/mL.
As to `Cc1nn(-c2ccccc2)c(-n2ccnc2)c1C1C(C#N)=C(N)Oc2c1ccc1ccccc21` (stereo not drawn), 0.54 µg/mL corresponded to half-maximal inhibition (IC50).
Compound `Cc1nn(-c2ccccc2)c(-n2ccnc2)c1C1C(C#N)=C(N)Oc2c1c(=O)oc1ccccc21` (stereo not drawn) registered a half-inhibitory concentration (IC50) of 0.42 µg/mL.
`Cc1nn(-c2ccccc2)c2c1C(c1cccs1)c1c(n(C)c(=O)n(C)c1=O)N2` (stereo not drawn) showed an IC50 of 0.033 µg/mL.
Consider `CCOC(=O)C1=C(N)OC2=C(C(=O)CC(C)(C)C2)C1c1c(C)nn(-c2ccccc2)c1-n1ccnc1` (stereo not drawn), for which the concentration for half-maximal inhibition (IC50) turned out to be 0.067 µg/mL.
Still for that read-out and setting: then `Cc1nn(-c2ccccc2)c2c1C(c1c(C)nn(-c3ccccc3)c1-n1ccnc1)C(C#N)=C(N)O2` (stereo not drawn), with 0.034 µg/mL; and `Cc1nn(-c2ccccc2)c(-n2ccnc2)c1C1C(C#N)=C(N)Oc2ccc3ccccc3c21` (stereo not drawn), with 0.32 µg/mL.

The next test relates to Plasmodium falciparum. Kind of test: Antimalarial activity against Plasmodium falciparum. Format: functional, organism-based.
Turning to `COc1ccc(NN2C(N)=C(C#N)C(c3c(C)nn(-c4ccccc4)c3Oc3cccc(C(F)(F)F)c3)C3=C2CC(C)(C)CC3=O)cc1` (stereo not drawn), 0.042 µg/mL (≈ 0.0642 µM) corresponded to half-maximal inhibition (IC50).
